In assay [1] the target is T1, Human OX1 receptor (Homo sapiens (Human), UniProt O43613). Briefly: [3H]-radioligand binding assay, OX1. The conditions noted are these: for pKi average OX1: competition binding, membranes of SF21 cells, Ki by Cheng-Prusoff. From the text: (§1) Cloning, Baculovirus generation, large-scale infection of SF21 cells and membrane preparation. Human OX1 or OX2 receptor were cloned into Invitrogen's (ThermoFisher Scientific, UK) Bac-to-Bac Baculovirus Expression System. P0 baculovirus was generated by transfecting SF9 cells with bacmid DNA using Cellfectin® II transfection reagent (ThermoFisher Scientific, UK, Catalog number 10362-100). Following P0 generation P1 virus was then generated ready for large scale infection and membrane preparation. SF21 cells were grown in expression medium ESF921 (Expression Systems, USA, catalog number 96-001-01) supplemented with 10% heat-inactivated FBS and 1% Pen/Strep and were infected at a cell density of 2.5×10^6 cells/mL and a multiplicity of infection of 1.0 for both human OX1R and OX2R. Incubation was carried out at over 48 h in a shaking incubator set at 27° C. The cell culture was then centrifuged at 2,500 rcf for 10 min at 4° C. The pellets were resuspended in cold PBS supplemented with Roche's Complete EDTA-free protease inhibitor cocktail tablets (Roche Applied Sciences, catalog number 05056489001), 1 mM PMSF and 1 mM EDTA. The resuspended cell paste was then centrifuged at 3,273 rcf for 12 min at 4° C. The supernatant was discarded and the pellet frozen at −80° C. The cell pellet from a 4 L culture was resuspended in buffer containing 50 mM HEPES pH 7.5, 150 mM NaCl, 8 Roche EDTA-Free protease inhibitor cocktail tablets and 1 mM PMSF. The suspension was left stirring at rt for 1 h and then homogenised for 90 s at 9,500 rpm using a VDI 25 (VWR, USA) homogeniser. The cells were then lysed using a Microfluidiser processor M-110L Pneumatic (Microfluidics, USA) at 60 PSI and membranes collected by ultracentrifugation at 204.7 k×g for 1 h. The supernatant was discarded and the pellet was resuspended and homogenised in 90 s at 9,500 rpm in 50 mL (25 mL for each 2 L culture) of buffer containing 50 mM Hepes pH 7.5, 150 mM NaCl, 3 Roche EDTA-free protease inhibitor cocktail tablets and 1 mM PMSF. The resulting membranes were then stored at −80° C.
(§2) [^3H]-radioligand binding assay. After thawing, membrane homogenates were resuspended in the binding buffer (8.5 mM HEPES, pH 7.4, 1.3 mM CaCl2, 1.2 mM MgSO4, 118 mM NaCl, 4.7 mM KCl, 4 mM NaHCO3, 1.2 mM KH2PO4, 11 mM glucose) to a final assay concentration of 6.4 μg (OX1) or 1.4 μg (OX2) protein per well. Saturation isotherms were determined by the addition of various concentrations (0-30 nM) of [^3H]-4-(2,6-difluoro-4-methoxybenzyl)-2-(5,6-dimethoxypyridin-3-yl)-2H-1,2,4-benzothiadiazin-3(4H)-one 1,1-dioxide (Christopher et al, MedChemComm., 2015, 6, 947-955) in a total reaction volume of 250 μL for 90 min at rt. At the end of the incubation, membranes were filtered onto a 96-well GF/B filter pre-incubated with 0.5% polyethylenimine, with a Tomtec cell harvester and washed 5 times with 0.5 mL distilled water. Non-specific binding (NSB) was measured in the presence of 3.33 μM [4-(5-chloro-1,3-benzoxazol-2-yl)-7-methyl-1,4-diazepan-1-yl][5-methyl-2-(2H-1,2,3-triazol-2-yl)phenyl]methanone (Wertz et al, Angew. Chem. Int. Ed., 2011, 50, 11511-11515). Radioactivity on the filter was counted (1 min) on a Microbeta radiometric plate counter (Perkin Elmer) after addition of 50 μL of scintillation fluid (LabLogic: Part #SG-BXX-14). […] IC50 values were derived from the inhibition curve and the equilibrium dissociation constant (Ki) values were calculated using the Cheng-Prusoff equation.

Assay [2] addresses T2, Human OX2 receptor (Homo sapiens (Human), UniProt O43614). The assay is described as follows: [3H]-radioligand binding assay, OX2. The conditions noted are these: for pKi average OX2: competition binding, membranes of SF21 cells, Ki by Cheng-Prusoff.
Source text: as §1, §2

In assay [3] the target is T1, Human OX1 receptor. Briefly: IPone accumulation assay, CHO cells expressing OX1. Type of assay: cell-based. The conditions noted are these: antagonism of orexin A (EC80 ~20 nM)-induced inositol phosphate turnover, read-out: fpKb average OX1 (converted). As to the method:
Generation of CHO stable cell lines expressing the human OX1R and OX2R. Stable cell lines for the human OX1R and OX2R receptors were generated through the transfection of CHO cells using the transfection reagent Genejuice (Novagen number 70967) and cDNA coding for either the human OX1R or OX2R. Cells were cultured in Sigma Nutrient Mixture F-12 Ham media (catalog number N6658) supplemented with 10% heat-inactivated FBS. Forty-eight hours after transfection, cells were harvested and placed under geneticin selection by culturing in Sigma Nutrient Mixture F-12 Ham media supplemented with 10% heat-inactivated FBS and geneticin (ThermoFisher Catalog number: 10131035). Selection of the final stable clone for each receptor was made on the basis of receptor expression, assay signal to noise and robustness though increasing passage. Selected clones for the human OX1R and OX2R were then frozen down into liquid nitrogen using Cell Freezing Medium-DMSO (Sigma-Aldrich catalog number: C6164).
(§3) IPone accumulation assay. A CHO cell line stably expressing either human OX1 or OX2 receptor was used with the IPone HTRF assay kit (CisBio: Part #62IPAPEJ) to measure receptor activation. The assay was optimised to measure the ability (potency; fpKb) of antagonists to reduce agonist (orexin A)-induced inositol phosphate turnover. Briefly, cells were plated onto half area 96-well white walled plates at a density of 12,500 cells/well. Sixteen hours post-plating cell growth media was replaced with antagonist concentration-response curve diluted in stimulation buffer (supplied with the kit). Cells were incubated in a humidified incubator (37° C.) for 30 min before an EC80 challenge concentration (˜20 nM (OX1) and 40 nM (OX2)) of orexin A (Tocris catalogue number 1455). After 30 min stimulation in a humidified incubator (37° C.) the assay was terminated by the addition of detection mixture as per manufacturer's instructions. The concentration of compound which reduced orexin-A stimulated turnover of inositol phosphates by 50% (IC50) was calculated by fitting to a four parameter sigmoidal dose response curve. The IC50 values were converted to fpKB values using the orexin A pEC50 value estimated on each plate as well as the challenge concentration interpolated from the orexin A control curve.

Assay [4] concerns the target T2, Human OX2 receptor. The assay is described as follows: IPone accumulation assay, CHO cells expressing OX2. The class given is cell-based. The conditions noted are these: antagonism of orexin A (EC80 40 nM)-induced inositol phosphate turnover, read-out: fpKb average OX2 (converted). Here is the method: as §3, with “Generation of CHO stable cell lines expressing the human OX1R and OX2R. Stable cell lines for the human OX1R and OX2R receptors were generated through the transfection of CHO cells using the transfection reagent Genejuice (Novagen number 70967) and cDNA coding for either the human OX1R or OX2R. Cells were cultured in Sigma Nutrient Mixture F-12 Ham media (catalog number N6658) supplemented with 10% heat-inactivated FBS. Forty-eight hours after transfection, cells were harvested and placed under geneticin selection by culturing in Sigma Nutrient Mixture F-12 Ham media supplemented with 10% heat-inactivated FBS and geneticin (ThermoFisher Catalog number: 10131035). Selection of the final stable clone for each receptor was made on the basis of receptor expression, assay signal to noise and robustness though increasing passage. Selected clones for the human OX1R and OX2R were then frozen down into liquid nitrogen using Cell Freezing Medium-DMSO (Sigma-Aldrich catalog number: C6164). IPone accumulation” for “IPone accumulation”, “(CisBio: Part #62[…]) to measure” for “(CisBio: Part #62IPAPEJ) to measure”, “challenge concentration ( 20 nM (OX1)” for “challenge concentration (˜20 nM (OX1)”

Molecules are shown by their SMILES.

T2 sequence (O43614 whole entry): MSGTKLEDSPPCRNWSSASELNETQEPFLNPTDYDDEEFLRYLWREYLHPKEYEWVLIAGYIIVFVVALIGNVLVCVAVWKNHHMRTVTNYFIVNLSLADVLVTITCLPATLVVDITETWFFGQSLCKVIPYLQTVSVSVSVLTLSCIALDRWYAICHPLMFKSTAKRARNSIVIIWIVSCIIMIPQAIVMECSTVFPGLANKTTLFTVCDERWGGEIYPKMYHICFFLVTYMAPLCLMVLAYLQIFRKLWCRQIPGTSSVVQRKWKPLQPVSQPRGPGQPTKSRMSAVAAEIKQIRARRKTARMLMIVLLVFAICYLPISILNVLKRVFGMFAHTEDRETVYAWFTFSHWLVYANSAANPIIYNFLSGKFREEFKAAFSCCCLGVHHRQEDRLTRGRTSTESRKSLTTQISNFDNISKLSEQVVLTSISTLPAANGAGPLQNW
T1 sequence (O43613 whole entry): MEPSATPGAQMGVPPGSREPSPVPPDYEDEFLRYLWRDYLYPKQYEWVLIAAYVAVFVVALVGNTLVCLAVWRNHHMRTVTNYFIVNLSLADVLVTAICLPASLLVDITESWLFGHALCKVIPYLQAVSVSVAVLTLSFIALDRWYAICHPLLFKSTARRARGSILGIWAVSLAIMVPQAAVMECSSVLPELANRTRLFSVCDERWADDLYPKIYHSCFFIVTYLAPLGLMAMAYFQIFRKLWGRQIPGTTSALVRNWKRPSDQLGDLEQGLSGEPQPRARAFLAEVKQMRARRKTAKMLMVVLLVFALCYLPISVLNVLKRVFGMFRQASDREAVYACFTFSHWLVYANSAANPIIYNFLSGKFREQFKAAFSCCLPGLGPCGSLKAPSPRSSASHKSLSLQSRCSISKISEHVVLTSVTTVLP

For the compound `CC(=O)Nc1ccc(-n2nccn2)c(C(=O)N(C)[C@H]2CCC[C@@H]2COc2ccc(F)cc2)n1` [Example 5, 6-acetamido-N-[(1S,2S)-2-[(4-fluorophenoxy)methyl]cyclopentyl]-N-methyl-3-(triazol-2-yl)pyridine-2-carboxamide], at Human OX1 receptor [1], the “pKi average OX1” value is on record as 8.5. For the same compound, at Human OX2 receptor [2], the “pKi average OX2” value was 6.0. Moreover, the figures for the Kb at Human OX1 receptor [3] and at Human OX2 receptor [4] were 3.16 nM and above 1000 nM, respectively.

Take `CC(=O)Nc1ccc(-n2nccn2)c(C(=O)N[C@H]2CCC[C@@H]2COc2ccc(Cl)cc2)n1` [Example 6, 6-acetamido-N-[(1S,2S)-2-[(4-chlorophenoxy)methyl]cyclopentyl]-3-(triazol-2-yl)pyridine-2-carboxamide]: on Human OX1 receptor [1], the “pKi average OX1” value is listed as 8.1. Moreover, at Human OX2 receptor [2], the “pKi average OX2” value was below 5.2. The Kb at Human OX1 receptor [3] was 7.94 nM; on Human OX2 receptor [4], above 631 nM.

For `[2H]C([2H])(Oc1ccc(F)cc1)[C@H]1CCC[C@@H]1NC(=O)c1nc(NC(C)=O)ccc1-n1nccn1` [Example 8, 6-acetamido-N-[(1S,2S)-2-[dideuterio-(4-fluorophenoxy)methyl]cyclopentyl]-3-(triazol-2-yl)pyridine-2-carboxamide], the “pKi average OX1” value on Human OX1 receptor [1] came out at 8.4. At Human OX2 receptor [2], the “pKi average OX2” value is 5.8. For the same compound, the Kb is 15.8 nM on Human OX1 receptor [3] and above 794 nM at Human OX2 receptor [4].

`CC(=O)Nc1cc(C(=O)N[C@H]2CCC[C@@H]2COc2ccc(F)cc2)c(-c2ncccn2)cn1` [Example 24, 2-acetamido-N-[(1S,2S)-2-[(4-fluorophenoxy)methyl]cyclopentyl]-5-pyrimidin-2-yl-pyridine-4-carboxamide]: at Human OX1 receptor [1], the “pKi average OX1” value stood at 8.3. Also, the “pKi average OX2” value at Human OX2 receptor [2] was found to be 6.6. Moreover, the Kb on Human OX1 receptor [3] is 1.26 nM; on Human OX2 receptor [4], above 398 nM.

In the case of `CC(=O)Nc1cnc(-n2nccn2)c(C(=O)N[C@H]2CCC[C@@H]2COc2ccc(F)cc2)c1` [Example 25, 5-acetamido-N-[(1S,2S)-2-[(4-fluorophenoxy)methyl]cyclopentyl]-2-(triazol-2-yl)pyridine-3-carboxamide], the “pKi average OX1” value at Human OX1 receptor [1] stood at 8.5. For the same compound, the “pKi average OX2” value at Human OX2 receptor [2] turned out to be 5.5. For the same compound, the figures for the Kb at Human OX1 receptor [3] and on Human OX2 receptor [4] were 3.98 nM and above 631 nM, respectively.

On to `CC(=O)Nc1ccc(-c2ncccn2)c(C(=O)N[C@H]2CCC[C@@H]2COc2ccc(F)cc2)n1` [Example 14, 6-acetamido-N-[(1S,2S)-2-[(4-fluorophenoxy)methyl]cyclopentyl]-3-pyrimidin-2-yl-pyridine-2-carboxamide], for which, at Human OX1 receptor [1], the “pKi average OX1” value came out at 8.3. Besides, on Human OX2 receptor [2], the “pKi average OX2” value is 6.0. Besides, the Kb at Human OX1 receptor [3] was 3.98 nM; on Human OX2 receptor [4], above 398 nM.

`CC(=O)Nc1ccc(-n2nccn2)c(C(=O)N[C@H]2CCC[C@@H]2COc2ccc(F)c(F)c2)n1` [Example 9, 6-acetamido-N-[(1S,2S)-2-[(3,4-difluorophenoxy)methyl]cyclopentyl]-3-(triazol-2-yl)pyridine-2-carboxamide]: the “pKi average OX1” value at Human OX1 receptor [1] came to 8.2. For the same compound, the “pKi average OX2” value on Human OX2 receptor [2] is given as 5.9. Also, the Kb at Human OX1 receptor [3] is 25.1 nM; on Human OX2 receptor [4], above 200 nM.

For the compound `Nc1ccc(-c2ncccn2)c(C(=O)N[C@H]2CCC[C@@H]2COc2ccc(F)cc2)n1` [Example 12, 6-amino-N-[(1S,2S)-2-[(4-fluorophenoxy)methyl]cyclopentyl]-3-pyrimidin-2-yl-pyridine-2-carboxamide], on Human OX1 receptor [1], the “pKi average OX1” value amounted to 8.2. In addition, the Kb at Human OX1 receptor [3] was 5.01 nM.

Broadly, the Kd is the free concentration of one partner at which half of the binding sites on the other are occupied at equilibrium, for simple one-to-one binding. Read a high Kd as lower affinity. For the compound `COc1cc(F)c(CN2C(=O)N(c3cnc(OC)c(OC)c3)S(=O)(=O)c3ccccc32)c(F)c1` [[^3H]-4-(2,6-difluoro-4-methoxybenzyl)-2-(5,6-dimethoxypyridin-3-yl)-2H-1,2,4-benzothiadiazin-3(4H)-one 1,1-dioxide, reference compound], the Kd at Human OX1 receptor [1] (saturation isotherms) amounted to 1.5 nM; on Human OX2 receptor [2] (saturation isotherms), 0.75 nM.

For `O=C(N[C@H]1CCC[C@@H]1COc1ccc(F)cc1)c1nc(NC(=O)C2CC2)ccc1-n1nccn1` [Example 13, 6-(cyclopropanecarbonylamino)-N-[(1S,2S)-2-[(4-fluorophenoxy)methyl]cyclopentyl]-3-(triazol-2-yl)pyridine-2-carboxamide], at Human OX1 receptor [1], the “pKi average OX1” value is given as 7.8. For the same compound, at Human OX2 receptor [2], the “pKi average OX2” value is recorded as below 6.0. Further, on Human OX2 receptor [4], the Kb is above 1000 nM.

The values above are taken from patent publication US12240825B2, “Oxexin 1 receptor antagonists” (Heptares Therapeutics Limited, priority 2019, dated 2025).
